Measurements as given in patent US20140348819A1, “Methods of Treating Cancer” (Dana-Farber Cancer Institute, Inc., priority 2011, published 2014).

System: six V600E BRAF melanoma cell lines
Assay: Screening of recombinant RTK ligands for ability to confer resistance to BRAFi (PLX4720) or MEKi (PD184352) (Table 4)
Assay type: cell-based, human
Set-up: ability of recombinant RTK ligand to confer resistance / ability of recombinant RTK ligand to confer resistance (screening value): scale not given here
Experimental: HGF is the only one that can substantially confer drug resistance to the cell lines.
The complexity of the tumor microenvironment is much greater than an in vitro co-culture system. Therefore, the inventors explored whether the activation of other RTKs could result in a similar resistance as that observed with the activation of MET. To this end, six V600E BRAF melanoma cell lines were tested for their resistance to either BRAFi (PLX4720) or MEKi (PD184352) after the addition of 22 RTK ligands that have the potential of activating almost all known RTKs. […] The activation of a selected subset of these RTKs was confirmed by western blotting and by high throughput tyrosine kinase phosphorylation profiling.

[1] = A2058, PD184352 - 1 uM, ligand 0.4 ng/ml
[2] = A2058, PD184352 - 1 uM, ligand 1.6 ng/ml
[3] = A2058, PD184352 - 1 uM, ligand 6.25 ng/ml
[4] = A2058, PD184352 - 1 uM, ligand 25 ng/ml
[5] = A2058, PD184352 - 1 uM, ligand 100 ng/ml
[6] = A2058, PLX4720 - 2 uM, ligand 0.4 ng/ml
[7] = A2058, PLX4720 - 2 uM, ligand 1.6 ng/ml
[8] = A2058, PLX4720 - 2 uM, ligand 6.25 ng/ml
[9] = A2058, PLX4720 - 2 uM, ligand 25 ng/ml
[10] = A2058, PLX4720 - 2 uM, ligand 100 ng/ml
[11] = C32, PD184352 - 1 uM, ligand 0.4 ng/ml
[12] = C32, PD184352 - 1 uM, ligand 1.6 ng/ml
[13] = C32, PD184352 - 1 uM, ligand 6.25 ng/ml
[14] = C32, PD184352 - 1 uM, ligand 25 ng/ml
[15] = C32, PD184352 - 1 uM, ligand 100 ng/ml
[16] = C32, PLX4720 - 2 uM, ligand 0.4 ng/ml
[17] = C32, PLX4720 - 2 uM, ligand 1.6 ng/ml
[18] = C32, PLX4720 - 2 uM, ligand 6.25 ng/ml
[19] = C32, PLX4720 - 2 uM, ligand 25 ng/ml
[20] = C32, PLX4720 - 2 uM, ligand 100 ng/ml
[21] = Colo 829, PD184352 - 1 uM, ligand 0.4 ng/ml
[22] = Colo 829, PD184352 - 1 uM, ligand 1.6 ng/ml
[23] = Colo 829, PD184352 - 1 uM, ligand 6.25 ng/ml
[24] = Colo 829, PD184352 - 1 uM, ligand 25 ng/ml
[25] = Colo 829, PD184352 - 1 uM, ligand 100 ng/ml
[26] = Colo 829, PLX4720 - 2 uM, ligand 0.4 ng/ml
[27] = Colo 829, PLX4720 - 2 uM, ligand 1.6 ng/ml
[28] = Colo 829, PLX4720 - 2 uM, ligand 6.25 ng/ml
[29] = Colo 829, PLX4720 - 2 uM, ligand 25 ng/ml
[30] = Colo 829, PLX4720 - 2 uM, ligand 100 ng/ml
[31] = G-361, PD184352 - 1 uM, ligand 0.4 ng/ml
[32] = G-361, PD184352 - 1 uM, ligand 1.6 ng/ml
[33] = G-361, PD184352 - 1 uM, ligand 6.25 ng/ml
[34] = G-361, PD184352 - 1 uM, ligand 25 ng/ml
[35] = G-361, PD184352 - 1 uM, ligand 100 ng/ml
[36] = G-361, PLX4720 - 2 uM, ligand 0.4 ng/ml
[37] = G-361, PLX4720 - 2 uM, ligand 1.6 ng/ml
[38] = G-361, PLX4720 - 2 uM, ligand 6.25 ng/ml
[39] = G-361, PLX4720 - 2 uM, ligand 25 ng/ml
[40] = G-361, PLX4720 - 2 uM, ligand 100 ng/ml
[41] = SK-MEL-5, PD184352 - 1 uM, ligand 0.4 ng/ml
[42] = SK-MEL-5, PD184352 - 1 uM, ligand 1.6 ng/ml
[43] = SK-MEL-5, PD184352 - 1 uM, ligand 6.25 ng/ml
[44] = SK-MEL-5, PD184352 - 1 uM, ligand 25 ng/ml
[45] = SK-MEL-5, PD184352 - 1 uM, ligand 100 ng/ml
[46] = SK-MEL-5, PLX4720 - 2 uM, ligand 0.4 ng/ml
[47] = SK-MEL-5, PLX4720 - 2 uM, ligand 1.6 ng/ml
[48] = SK-MEL-5, PLX4720 - 2 uM, ligand 6.25 ng/ml
[49] = SK-MEL-5, PLX4720 - 2 uM, ligand 25 ng/ml
[50] = SK-MEL-5, PLX4720 - 2 uM, ligand 100 ng/ml
[51] = SK-MEL-28, PD184352 - 1 uM, ligand 0.4 ng/ml
[52] = SK-MEL-28, PD184352 - 1 uM, ligand 1.6 ng/ml
[53] = SK-MEL-28, PD184352 - 1 uM, ligand 6.25 ng/ml
[54] = SK-MEL-28, PD184352 - 1 uM, ligand 25 ng/ml
[55] = SK-MEL-28, PD184352 - 1 uM, ligand 100 ng/ml
[56] = SK-MEL-28, PLX4720 - 2 uM, ligand 0.4 ng/ml
[57] = SK-MEL-28, PLX4720 - 2 uM, ligand 1.6 ng/ml
[58] = SK-MEL-28, PLX4720 - 2 uM, ligand 6.25 ng/ml
[59] = SK-MEL-28, PLX4720 - 2 uM, ligand 25 ng/ml
[60] = SK-MEL-28, PLX4720 - 2 uM, ligand 100 ng/ml

## NGF
[1]
  ability of recombinant RTK ligand to confer resistance: 0.98
[2]
  ability of recombinant RTK ligand to confer resistance: 0.95
[3]
  ability of recombinant RTK ligand to confer resistance: 1.09
[4]
  ability of recombinant RTK ligand to confer resistance: 0.99
[5]
  ability of recombinant RTK ligand to confer resistance: 0.99
[6]
  ability of recombinant RTK ligand to confer resistance: 1.04
[7]
  ability of recombinant RTK ligand to confer resistance: 1.02
[8]
  ability of recombinant RTK ligand to confer resistance: 1.06
[9]
  ability of recombinant RTK ligand to confer resistance: 1.07
[10]
  ability of recombinant RTK ligand to confer resistance: 0.98
[11]
  ability of recombinant RTK ligand to confer resistance: 1.00
[12]
  ability of recombinant RTK ligand to confer resistance: 1.07
[13]
  ability of recombinant RTK ligand to confer resistance: 1.07
[14]
  ability of recombinant RTK ligand to confer resistance: 0.98
[15]
  ability of recombinant RTK ligand to confer resistance: 1.03
[16]
  ability of recombinant RTK ligand to confer resistance: 0.98
[17]
  ability of recombinant RTK ligand to confer resistance: 0.98
[18]
  ability of recombinant RTK ligand to confer resistance: 1.03
[19]
  ability of recombinant RTK ligand to confer resistance: 0.97
[20]
  ability of recombinant RTK ligand to confer resistance: 0.87
[21]
  ability of recombinant RTK ligand to confer resistance: 1.04
[22]
  ability of recombinant RTK ligand to confer resistance: 1.03
[23]
  ability of recombinant RTK ligand to confer resistance: 1.04
[24]
  ability of recombinant RTK ligand to confer resistance: 0.94
[25]
  ability of recombinant RTK ligand to confer resistance: 1.02
[26]
  ability of recombinant RTK ligand to confer resistance: 0.96
[27]
  ability of recombinant RTK ligand to confer resistance: 0.96
[28]
  ability of recombinant RTK ligand to confer resistance: 1.02
[29]
  ability of recombinant RTK ligand to confer resistance: 0.96
[30]
  ability of recombinant RTK ligand to confer resistance: 1.03
[31]
  ability of recombinant RTK ligand to confer resistance: 1.09
[32]
  ability of recombinant RTK ligand to confer resistance: 0.78
[33]
  ability of recombinant RTK ligand to confer resistance: 0.97
[34]
  ability of recombinant RTK ligand to confer resistance: 0.85
[35]
  ability of recombinant RTK ligand to confer resistance: 0.94
[36]
  ability of recombinant RTK ligand to confer resistance: 1.10
[37]
  ability of recombinant RTK ligand to confer resistance: 0.87
[38]
  ability of recombinant RTK ligand to confer resistance: 0.91
[39]
  ability of recombinant RTK ligand to confer resistance: 0.92
[40]
  ability of recombinant RTK ligand to confer resistance: 0.94
[41]
  ability of recombinant RTK ligand to confer resistance: 1.03
[42]
  ability of recombinant RTK ligand to confer resistance: 1.04
[43]
  ability of recombinant RTK ligand to confer resistance: 0.96
[44]
  ability of recombinant RTK ligand to confer resistance: 1.07
[45]
  ability of recombinant RTK ligand to confer resistance: 1.09
[46]
  ability of recombinant RTK ligand to confer resistance: 1.00
[47]
  ability of recombinant RTK ligand to confer resistance: 1.03
[48]
  ability of recombinant RTK ligand to confer resistance: 0.85
[49]
  ability of recombinant RTK ligand to confer resistance: 0.93
[50]
  ability of recombinant RTK ligand to confer resistance: 0.92
[51]
  ability of recombinant RTK ligand to confer resistance: 0.91
[52]
  ability of recombinant RTK ligand to confer resistance: 0.92
[53]
  ability of recombinant RTK ligand to confer resistance: 0.99
[54]
  ability of recombinant RTK ligand to confer resistance: 0.96
[55]
  ability of recombinant RTK ligand to confer resistance: 1.08
[56]
  ability of recombinant RTK ligand to confer resistance: 0.89
[57]
  ability of recombinant RTK ligand to confer resistance: 0.97
[58]
  ability of recombinant RTK ligand to confer resistance: 1.05
[59]
  ability of recombinant RTK ligand to confer resistance: 1.00
[60]
  ability of recombinant RTK ligand to confer resistance: 1.12

## NT3
[1]
  ability of recombinant RTK ligand to confer resistance: 1.04
[2]
  ability of recombinant RTK ligand to confer resistance: 1.13
[3]
  ability of recombinant RTK ligand to confer resistance: 1.08
[4]
  ability of recombinant RTK ligand to confer resistance: 1.01
[5]
  ability of recombinant RTK ligand to confer resistance: 0.90
[6]
  ability of recombinant RTK ligand to confer resistance: 1.02
[7]
  ability of recombinant RTK ligand to confer resistance: 1.16
[8]
  ability of recombinant RTK ligand to confer resistance: 1.09
[9]
  ability of recombinant RTK ligand to confer resistance: 1.02
[10]
  ability of recombinant RTK ligand to confer resistance: 0.93
[11]
  ability of recombinant RTK ligand to confer resistance: 0.98
[12]
  ability of recombinant RTK ligand to confer resistance: 1.02
[13]
  ability of recombinant RTK ligand to confer resistance: 0.93
[14]
  ability of recombinant RTK ligand to confer resistance: 0.95
[15]
  ability of recombinant RTK ligand to confer resistance: 0.88
[16]
  ability of recombinant RTK ligand to confer resistance: 1.00
[17]
  ability of recombinant RTK ligand to confer resistance: 1.03
[18]
  ability of recombinant RTK ligand to confer resistance: 0.91
[19]
  ability of recombinant RTK ligand to confer resistance: 1.00
[20]
  ability of recombinant RTK ligand to confer resistance: 0.95
[21]
  ability of recombinant RTK ligand to confer resistance: 1.07
[22]
  ability of recombinant RTK ligand to confer resistance: 1.16
[23]
  ability of recombinant RTK ligand to confer resistance: 1.02
[24]
  ability of recombinant RTK ligand to confer resistance: 1.07
[25]
  ability of recombinant RTK ligand to confer resistance: 1.03
[26]
  ability of recombinant RTK ligand to confer resistance: 1.03
[27]
  ability of recombinant RTK ligand to confer resistance: 1.15
[28]
  ability of recombinant RTK ligand to confer resistance: 1.00
[29]
  ability of recombinant RTK ligand to confer resistance: 1.09
[30]
  ability of recombinant RTK ligand to confer resistance: 1.04
[31]
  ability of recombinant RTK ligand to confer resistance: 0.98
[32]
  ability of recombinant RTK ligand to confer resistance: 0.98
[33]
  ability of recombinant RTK ligand to confer resistance: 1.01
[34]
  ability of recombinant RTK ligand to confer resistance: 1.05
[35]
  ability of recombinant RTK ligand to confer resistance: 0.88
[36]
  ability of recombinant RTK ligand to confer resistance: 0.95
[37]
  ability of recombinant RTK ligand to confer resistance: 0.98
[38]
  ability of recombinant RTK ligand to confer resistance: 1.00
[39]
  ability of recombinant RTK ligand to confer resistance: 0.98
[40]
  ability of recombinant RTK ligand to confer resistance: 0.84
[41]
  ability of recombinant RTK ligand to confer resistance: 1.02
[42]
  ability of recombinant RTK ligand to confer resistance: 1.08
[43]
  ability of recombinant RTK ligand to confer resistance: 1.00
[44]
  ability of recombinant RTK ligand to confer resistance: 0.94
[45]
  ability of recombinant RTK ligand to confer resistance: 1.04
[46]
  ability of recombinant RTK ligand to confer resistance: 0.99
[47]
  ability of recombinant RTK ligand to confer resistance: 1.02
[48]
  ability of recombinant RTK ligand to confer resistance: 0.93
[49]
  ability of recombinant RTK ligand to confer resistance: 0.98
[50]
  ability of recombinant RTK ligand to confer resistance: 1.09
[51]
  ability of recombinant RTK ligand to confer resistance: 1.02
[52]
  ability of recombinant RTK ligand to confer resistance: 0.97
[53]
  ability of recombinant RTK ligand to confer resistance: 0.99
[54]
  ability of recombinant RTK ligand to confer resistance: 1.15
[55]
  ability of recombinant RTK ligand to confer resistance: 0.96
[56]
  ability of recombinant RTK ligand to confer resistance: 0.95
[57]
  ability of recombinant RTK ligand to confer resistance: 1.05
[58]
  ability of recombinant RTK ligand to confer resistance: 0.89
[59]
  ability of recombinant RTK ligand to confer resistance: 1.14
[60]
  ability of recombinant RTK ligand to confer resistance: 0.94
